Experimental data: patent publication US9365633B2, “Peptide preparations and peptides with antitumour activity” (Instytut Medycyny Doswiadczalnej I Klinicznej Pan, priority 2010, dated 2016)

Tested on: melanoma cells of the line MeW 155
Assay: Effect of synthetic peptides on proliferation of melanoma cells, 3 day culture in 96-well plate
Format: cell-based
Conditions: 3 days of culture; for cell numbers, % of the control: 4000 cells per well; for toxicity to MeW 155 melanoma cells: MeW 155, 0.1 mM
Description: The synthetic peptides were examined for their effect on the proliferation of melanoma cells of the line MeW 155. The culture was maintained under standard conditions for 3 days with 4000 cells per well of a 96-well culture plate. After three days, the numbers of cells in the control group increased to 120 000. It turned out that after 3 days of culture, peptide 91 at a concentration of 0.004 mM decreased cell numbers to 55% of the control, and a 0.02 mM concentration decreased the cells to 35%, whereas 0.1 mM was toxic to MeW 155 cells. Peptide 92 at 0.004 mM decreased the number of tumour cells to 65% of the control, a 0.02 mMol concentration decreased the number of cells to 49%, and a concentration of 0.1 mM was toxic to melanoma cells.

Sequence | cell numbers, % of the control (MeW 155, 0.004 mM) [%] | cell numbers, % of the control (MeW 155, 0.02 mM) [%] | toxicity to MeW 155 melanoma cells
YRPWGSGSGFG [peptide 91] | 55 | 35 | toxic
YRPWGSGSGF [compound 92] | 65 | 49 | toxic
